Measurements reported in patent US5187160A, “Cephem compound” (Fujisawa Pharmaceutical Co., Ltd., priority 1989, dated 1993).
Where a name gives a salt, the structure may show the parent alone.

System: P. aeruginosa 26
Experiment: In vitro antibacterial activity, two-fold agar-plate dilution method (MIC)
Type: cell-based
Details: Pseudomonas aeruginosa, heart infusion agar, 10^8 viable cells per ml, 37° C. for 20 hours, read-out: MIC (minimal inhibitory concentration)
Description: Now in order to show the utility of the object compound [I], the test data on MIC (minimal inhibitory concentration) of representative compound [I] of this invention is shown in the following.
In vitro antibacterial activity was determined by the two-fold agar-plate dilution method as described below.
One loopful of an overnight culture of each test strain in Trypticase-soy broth (10^8 viable cells per ml) was streaked on heart infusion agar (HI-agar) containing graded concentrations of representative test compound, and the minimal inhibitory concentration (MIC) was expressed in terms of μg/ml after incubation at 37° C. for 20 hours.

MIC: 1.56 µg/mL
Compound: CCON=C(C(=O)NC1C(=O)N2C(C(=O)[O-])=C(C[n+]3ccc(N)n3CCO)CSC12)c1csc(N)n1 (stereo not drawn) [Example 2, Sulfuric acid salt of 7β-[2-(2-aminothiazol-4-yl)-2-ethoxyiminoacetamido]-3-[3-amino-2-(2-hydroxyethyl)-1-pyrazolio]methyl-3-cephem-4-carboxylate (syn isomer)]
